Activity, ED50 and inhibition data for eight molecules are collected here from ChEMBL document CHEMBL1157426, “Diazen-1-ium-1,2-diolated nitric oxide donor ester prodrugs of 1-(4-methanesulfonylphenyl)-5-aryl-1H-pyrazol-3-carboxylic acids: synthesis, nitric oxide release studies and anti-inflammatory activities” (Bioorg Med Chem, 2008).

Data set [1] can be described thus: Induction of nitric oxide release at pH 7.4 PBS after 1.5 hrs. It counts as physicochemical. Particulars: buffer, pH 7.4, 1.5 h.
A further data set concerns Serum. Description: Induction of nitric oxide release in rat serum at pH 7.4 after 1.5 hrs. Particulars: pH 7.4, 1.5 h. The class given is cell-free.
The test system of a further data set is Rattus norvegicus. Description: Antiinflammatory activity in po dosed rat assessed as inhibition of carrageenan-induced paw edema after 3 hrs. It counts as functional. Particulars: read-out: ID50 (the source's name).
The target of data set [2] is Prostaglandin G/H synthase 1 (Homo sapiens) (UniProt P23219). Particulars: at 100 µM.
Description: Inhibition of COX1 at 100 uM
For data set [3], the target named is T1, Prostaglandin G/H synthase 2 (Homo sapiens) (UniProt P35354).
T1 sequence (whole entry): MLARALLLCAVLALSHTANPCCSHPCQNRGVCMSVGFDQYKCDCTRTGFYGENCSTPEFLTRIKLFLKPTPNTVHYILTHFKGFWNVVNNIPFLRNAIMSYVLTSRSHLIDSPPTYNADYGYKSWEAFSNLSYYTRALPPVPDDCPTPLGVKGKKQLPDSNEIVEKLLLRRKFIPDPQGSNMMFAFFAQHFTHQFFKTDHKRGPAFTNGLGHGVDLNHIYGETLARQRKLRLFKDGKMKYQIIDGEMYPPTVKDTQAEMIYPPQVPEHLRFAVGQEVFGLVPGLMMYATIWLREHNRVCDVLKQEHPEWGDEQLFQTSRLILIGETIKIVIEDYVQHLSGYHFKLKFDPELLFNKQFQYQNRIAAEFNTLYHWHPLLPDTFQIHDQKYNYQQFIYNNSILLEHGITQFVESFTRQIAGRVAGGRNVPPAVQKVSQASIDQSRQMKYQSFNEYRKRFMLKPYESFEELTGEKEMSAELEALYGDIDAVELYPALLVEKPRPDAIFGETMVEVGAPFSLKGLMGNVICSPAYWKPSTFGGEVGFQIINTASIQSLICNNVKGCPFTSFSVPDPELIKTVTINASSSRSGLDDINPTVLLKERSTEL
Particulars: at 100 µM.
Description: Inhibition of COX2 at 100 uM

Sequence of Prostaglandin G/H synthase 1 (Homo sapiens) (P23219 whole entry): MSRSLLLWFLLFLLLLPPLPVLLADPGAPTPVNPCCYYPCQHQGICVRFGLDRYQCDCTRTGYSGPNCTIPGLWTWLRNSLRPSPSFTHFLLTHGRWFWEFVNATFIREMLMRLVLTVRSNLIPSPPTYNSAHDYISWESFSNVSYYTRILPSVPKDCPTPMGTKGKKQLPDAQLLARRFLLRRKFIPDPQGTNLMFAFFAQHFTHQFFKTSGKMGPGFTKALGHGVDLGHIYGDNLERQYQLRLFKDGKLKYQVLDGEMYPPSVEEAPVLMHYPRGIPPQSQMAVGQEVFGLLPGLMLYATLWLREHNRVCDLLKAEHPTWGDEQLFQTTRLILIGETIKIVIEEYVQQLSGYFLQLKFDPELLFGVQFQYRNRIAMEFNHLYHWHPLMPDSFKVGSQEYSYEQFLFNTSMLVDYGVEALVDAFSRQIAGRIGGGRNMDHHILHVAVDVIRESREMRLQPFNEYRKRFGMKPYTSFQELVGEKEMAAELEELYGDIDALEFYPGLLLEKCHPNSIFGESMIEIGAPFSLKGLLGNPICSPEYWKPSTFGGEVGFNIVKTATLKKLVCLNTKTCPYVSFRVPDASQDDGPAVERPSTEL

With `CC(=O)OCO/N=[N+](\[O-])N(C)CCOC(=O)c1cc(-c2ccccc2)n(-c2ccc(S(C)(=O)=O)cc2)n1`, the Activity in data set [1] is recorded as 7.7%; in the data set with Serum, 67.5%.

Regarding `Cc1ccc(-c2cc(C(=O)O)nn2-c2ccc(S(C)(=O)=O)cc2)cc1`, the ED50 with Rattus norvegicus was 85.2 mg/kg.

Consider `CN(CCO)/[N+]([O-])=N/[O-].[Na+]`, for which the values for the Activity (in data set [1]; in the data set with Serum) were 84.5% and 85%, respectively.

In general, inhibition refers to the relative decrease from the control value, in per cent. A higher inhibition goes with a response far below the control. Regarding `CCOC(=O)c1cc(-c2ccc(C)cc2)n(-c2ccc(S(N)(=O)=O)cc2)n1`, the inhibition was 66% in data set [2] and 43% in data set [3].

With `CC(=O)OCO/N=[N+](\[O-])N(C)CCOC(=O)c1cc(-c2ccc(C)cc2)n(-c2ccc(S(C)(=O)=O)cc2)n1`, the Activity in data set [1] was found to be 9.2%; in the data set with Serum, 70.9%.

For the molecule `CS(=O)(=O)c1ccc(-n2nc(C(=O)O)cc2-c2ccc(F)cc2)cc1`, the ED50 with Rattus norvegicus came out at 104 mg/kg.

For `CS(=O)(=O)c1ccc(-n2nc(C(=O)O)cc2-c2ccccc2)cc1`, the ED50 with Rattus norvegicus was determined as 104 mg/kg.

Take `CC(=O)OCO/N=[N+](\[O-])N(C)CCOC(=O)c1cc(-c2ccc(F)cc2)n(-c2ccc(S(C)(=O)=O)cc2)n1`: the values for the Activity (in data set [1]; with Serum) were 9.3% and 73.6%, respectively.
